# Patent US11667652B2, “MCL1 inhibitors” (Gilead Sciences, Inc., priority 2019, dated 2023)
# Where two headings read alike, the source gives them in different places.
# Experiments:
# [1] = target: MCL1/Bim (Homo sapiens (Human), UniProt Q07820); test: MCL1/Bim Binding AlphaLISA Assay; conditions: recombinant human 6xHis-MCL1 (171-327), biotinylated Bim peptide (51-76)
# Outline: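 AlphaLISA with 0.0625 nM human 6×His-MCL1 (171-327) and 0.0625 nM biotinylated Bim (51-76) peptide in 20 mM Hepes pH 7.5, 150 mM NaCl, 0.002% Brij 35, 1 mM DTT, 0.01% BSA. Compound preincubated with MCL1 1 h, Bim added 2 h, then acceptor and donor beads 1 h each; % inhibition versus DMSO and no-protein/peptide controls.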
# [2] = system: SKBR3 cells; test: SKBR3 Cell Viability Assay; type: cell-based; conditions: CellTiter Glo, read-out: MCL1 CV SKBR3 EC50
# Outline: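 SKBR3 cells (6,000/well, McCoy's 5A + 10% FBS) were added onto pre-spotted serial compound dilutions and incubated 72 h at 37° C, 5% CO2. Viability was read by CellTiter-Glo luminescence, with % inhibition normalised to DMSO (negative) and 10 μM puromycin (positive).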
# [3] = Homo sapiens, SK-BR-3, 72 hours
# Sequence of MCL1/Bim (Q07820 171-327): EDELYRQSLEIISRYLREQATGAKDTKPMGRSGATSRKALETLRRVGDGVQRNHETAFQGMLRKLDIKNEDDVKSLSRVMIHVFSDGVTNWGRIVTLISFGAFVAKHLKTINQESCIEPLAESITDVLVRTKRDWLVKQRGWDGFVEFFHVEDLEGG
Structure (SMILES),IC50 [1] [nM],"EC50 [2, 3] [nM]",EC50 ([2]; 72 hours) [nM]
COc1nn(C)cc1C(=O)N[S@@]1(=O)=NC(=O)c2ccc3c(c2F)N(C[C@@H]2CC[C@H]2[C@@H](OC)/C=C/C[C@H](C)C1)C[C@@]1(CCCc2cc(Cl)ccc21)CO3 [Example 161],0.089,33.8,–
CO[C@H]1/C=C/C[C@H](C)C[S@@](=O)(Nc2cnc(C#N)cn2)=NC(=O)c2ccc3c(c2)N(C[C@@H]2CC[C@H]21)C[C@@]1(CCCc2cc(Cl)ccc21)CO3 [Example 5],0.584,4180,–
COc1nn(C)cc1C(=O)N[S@@]1(=O)=NC(=O)c2ccc3c(c2)N(C[C@@H]2CC[C@H]2[C@@H](OC)/C=C/[C@H](OCCN2CC4(COC4)C2)[C@H](C)C1)C[C@@]1(CCCc2cc(Cl)ccc21)CO3 [Example 86],0.088,64.6,–
CO[C@H]1/C=C/C[C@H](C)C[S@@](=O)(Nc2nc(NCCN3CCOCC3)nc3nn(C)cc23)=NC(=O)c2ccc3c(c2)N(C[C@@H]2CC[C@H]21)C[C@@]1(CCCc2cc(Cl)ccc21)CO3 [Example 20],0.313,41.3,–
CO[C@H]1/C=C/CCC[S@@](=O)(NC(=O)NC2CC2)=NC(=O)c2ccc3c(c2)N(C[C@@H]2CC[C@H]21)C[C@]1(CO3)SCCc2cc(Cl)ccc21 [Example 183],0.24,454,–
COc1nn(C)cc1C(=O)N[S@@]1(=O)=NC(=O)c2ccc3c(c2)N(C[C@@H]2CC[C@H]2[C@@H](OC)/C=C/[C@](C)(OC)[C@H](C)C1)C[C@@]1(CCCc2cc(Cl)ccc21)CO3 [Example 123],0.135,69.7,–
COc1nn(C)cc1C(=O)N[S@@]1(=O)=NC(=O)c2ccc3c(c2)N(C[C@@H]2CC[C@H]2[C@@H](OC)C[C@H]2CCO[C@@H]2[C@H](C)[C@H]1C)C[C@@]1(CCCc2cc(Cl)ccc21)CO3 [Example 159],0.689,–,381
COc1nn(C)cc1C(=O)N[S@@]1(=O)=NC(=O)c2ccc3c(c2)N(C[C@@H]2CC[C@H]2[C@](CN2CCN(C4COC4)CC2)(OC)/C=C/C[C@H](C)C1)C[C@@]1(CCCc2cc(Cl)ccc21)CO3 [Example 115],0.029,16,–
CO[C@H]1/C=C/C[C@H](C)C[S@@](=O)(NC(=O)c2cn(C)nc2C#CC(C)(C)O)=NC(=O)c2ccc3c(c2)N(C[C@@H]2CC[C@H]21)C[C@@]1(CCCc2cc(Cl)ccc21)CO3 [Example 209],0.04,127,–
COc1nn(C)cc1C(=O)N[S@@]1(=O)=NC(=O)c2ccc3c(c2)N(C[C@@H]2CC[C@H]2[C@H](O)/C=C/C[C@H](C)C1)C[C@@]1(CCCc2cc(Cl)ccc21)CO3 [Example 39],0.201,146,–
CO[C@H]1/C=C/C[C@H](C)C[S@@](=O)(NC(=O)c2cn(C)nc2N2CCN3CCOC[C@@H]3C2)=NC(=O)c2ccc3c(c2)N(C[C@@H]2CC[C@H]21)C[C@@]1(CCCc2cc(Cl)ccc21)CO3 [Example 23],0.083,17.3,–
COc1nn(C)cc1C(=O)N[S@@]1(=O)=NC(=O)c2ccc3c(c2)N(C[C@@H]2CC[C@H]2[C@@H](OC)/C=C/[C@H](NC(C)=O)[C@H](C)C1)C[C@@]1(CCCc2cc(Cl)ccc21)CO3 [Example 118],0.634,–,2520
COc1nn(C)cc1C(=O)N[S@@]1(=O)=NC(=O)c2ccc3c(c2)N(C[C@@H]2CC[C@H]2[C@@H](OC)/C=C/[C@H](OCCN2CCN(C)CC2)[C@H](C)C1)C[C@@]1(CCCc2cc(Cl)ccc21)CO3 [Example 82],0.041,53.6,–
COc1nn(C)cc1C(=O)N[S@@]1(=O)=NC(=O)c2ccc3c(c2)N(C[C@@H]2CC[C@H]2[C@](O)(CC(=O)N2CCN4CCOCC4C2)/C=C/C[C@H](C)C1)C[C@@]1(CCCc2cc(Cl)ccc21)CO3 (stereo partly drawn) [Example 103],0.074,–,34.6
CO[C@H]1/C=C/C[C@H](C)[C@@H](C)[S@@](=O)(NC(=O)COC2CCOCC2)=NC(=O)c2ccc3c(n2)N(C[C@@H]2CC[C@H]21)C[C@@]1(CCCc2cc(Cl)ccc21)CO3 [Example 203],0.12,156,–
